Reference: paper PMC3691235, “Discovery of a Novel Dual Fungal CYP51/Human 5-Lipoxygenase Inhibitor: Implications for Anti-Fungal Therapy” (PLoS ONE, 2013)
Read-outs that look alike come from different tables or passages of the source.

Tests used:
[1] = target: T1, C. albicans CYP51 (CaCYP51) (Candida albicans, UniProt P10613); assay: biochemical; format: binding
T1 construct: made in house; host or cells: E. coli
Protocol: (§1) Native cytochrome P450 concentrations were determined by reduced carbon monoxide difference spectra, based on an extinction coefficient of 91 mM^−1 cm^−1 [42], [43]. Binding of azole antifungal agents to 5 µM CaCYP51 and 5 µM HsCYP51 were performed as previously described, [44], using 0.25 and 0.5 mg mL^−1 stock solutions of ketoconazole and ketaminazole in DMSO. Azole antifungal agents were progressively titrated against the CYP51 protein in 0.1 M Tris-HCl (pH 8.1) and 25% (wt/vol) glycerol, with the spectral difference determined after each incremental addition of azole. The dissociation constant (Kd) of the enzyme-azole complex was determined by nonlinear regression (Levenberg-Marquardt algorithm) of ΔA peak-trough against azole concentration using a rearrangement of the Morrison equation [45] and fitted by the computer program ProFit 6.1.12 (QuantumSoft, Zurich, Switzerland).

[2] = target: T2, Homo sapiens CYP51 (HsCYP51) (Homo sapiens, UniProt Q16850); assay: Azole binding to HsCYP51 (type II difference spectra titration); settings: for Kd: 5 µM HsCYP51, Morrison equation
T2 construct: made in house; host or cells: E. coli
T2 sequence (Q16850 1-509): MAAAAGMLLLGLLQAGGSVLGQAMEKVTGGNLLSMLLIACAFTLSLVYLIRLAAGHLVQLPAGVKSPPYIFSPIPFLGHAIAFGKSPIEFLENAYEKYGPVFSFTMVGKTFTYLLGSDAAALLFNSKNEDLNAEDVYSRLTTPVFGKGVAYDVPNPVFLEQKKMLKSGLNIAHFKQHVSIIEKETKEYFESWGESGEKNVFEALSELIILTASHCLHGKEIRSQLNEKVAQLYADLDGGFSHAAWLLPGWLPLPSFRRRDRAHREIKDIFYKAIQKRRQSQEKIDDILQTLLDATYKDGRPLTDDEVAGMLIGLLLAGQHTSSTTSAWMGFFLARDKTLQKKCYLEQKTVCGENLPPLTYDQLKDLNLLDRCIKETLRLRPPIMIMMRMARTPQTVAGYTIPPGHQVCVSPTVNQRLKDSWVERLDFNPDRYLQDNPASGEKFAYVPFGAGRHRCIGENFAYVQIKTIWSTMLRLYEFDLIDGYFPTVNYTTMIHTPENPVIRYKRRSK
Protocol: as §1

[3] = target: T3, HsCYP51 (Homo sapiens, UniProt Q16850); assay: CYP51 reconstitution assay, HsCYP51; format: biochemical; settings: for IC50: 0.3 µM HsCYP51, 50 µM lanosterol
T3 construct: made in house; host or cells: E. coli
T3 sequence (Q16850 1-509): T2 sequence (Q16850 1-509)
Protocol: Azole antifungal agents were added in 5 µL DMSO followed by incubation for 5 minutes at 37°C prior to assay initiation with 4 mM β-NADPHNa4, with shaking for a further 10 minutes at 37°C. Sterol metabolites were recovered by extraction with ethyl acetate followed by derivatization with N,O-bis(trimethylsilyl)trifluoroacetamide and […] prior to analysis by gas chromatography mass spectrometry.

[4] = target: T2, Homo sapiens CYP51 (HsCYP51); parameters: method as in PMID 20149798; settings: ref [40]; read-out: Kd with HsCYP51, previously reported; cited from earlier work

T1 sequence (P10613 whole entry): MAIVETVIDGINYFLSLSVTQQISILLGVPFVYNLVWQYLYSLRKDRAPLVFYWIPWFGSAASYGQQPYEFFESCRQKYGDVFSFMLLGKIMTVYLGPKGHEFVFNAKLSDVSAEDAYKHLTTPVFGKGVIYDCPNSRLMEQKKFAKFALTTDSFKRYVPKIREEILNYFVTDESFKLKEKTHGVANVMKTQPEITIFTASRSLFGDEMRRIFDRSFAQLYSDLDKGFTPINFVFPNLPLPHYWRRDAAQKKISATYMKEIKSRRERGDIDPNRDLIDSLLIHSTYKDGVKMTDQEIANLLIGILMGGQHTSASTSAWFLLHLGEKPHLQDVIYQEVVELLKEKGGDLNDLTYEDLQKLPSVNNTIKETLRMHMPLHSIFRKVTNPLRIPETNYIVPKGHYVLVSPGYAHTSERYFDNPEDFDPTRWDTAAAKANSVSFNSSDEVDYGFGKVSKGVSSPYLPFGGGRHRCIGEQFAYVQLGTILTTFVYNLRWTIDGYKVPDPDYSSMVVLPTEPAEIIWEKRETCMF

Structure (SMILES) | Kd ([1]; 5 µM CaCYP51, Morrison equation, read-out: Kd with CaCYP51) [nM] | IC50 ([1]; in vitro) [nM] | Kd [2] [nM] | selectivity for yeast CYP51 relative to human CYP51 ([2]; yeast vs human CYP51) [fold] | IC50 [3] [nM] | remaining activity at 155 µM ([3]; HsCYP51, at 155 µM compound) [%] | fold higher IC50 over ketoconazole with HsCYP51 ([3]; ratio of IC50 values) [fold] | Kd [1] [nM] | fold difference in binding to CaCYP51 compared to ketaminazole (16) ([1]; ratio of Kd values) [fold] | fold tighter binding to HsCYP51 compared to ketaminazole (16) ([2]; ratio of Kd values) [fold] | HsCYP51 activity, in words ([3]; at 95 µM compound) | Kd [4] [nM]
CC(=O)N1CCN(c2ccc(NCC3COC(Cn4ccnc4)(c4ccc(Cl)cc4Cl)O3)cc2)CC1 (centres unmarked) [ketaminazole (16), ketaminazole] | 43 ± 5 | 43 | 731 ± 69 | 17 | ~16000 | ~30 | 3 | – | – | – | – | –
CC(=O)N1CCN(c2ccc(OCC3COC(Cn4ccnc4)(c4ccc(Cl)cc4Cl)O3)cc2)CC1 (centres unmarked) [ketoconazole, reference compound] | – | – | 42 ± 16 | – | ~5000 | – | – | 27 ± 5 | 1.6 | 17 | inactivated | ~180
